Assay results: article PMC6838048, “A Cell-Free Approach Based on Phospholipid Characterization for Determination of the Cell Specific Unbound Drug Fraction (fu,cell)” (Pharmaceutical Research, 2019)

Legend:
[1] = fu,cell by equilibrium dialysis of cell homogenate, HEK293; format: in vitro ADME; details: human, dialysis 4 h 37°C, 10 million cells/mL homogenate, read-out: fu,HEK293 Geomean
Protocol: (§1) fu,cell was measured in cassette-mode as previously described with minor modifications ([9]). Briefly, 10 million cells/mL were suspended in HBSS buffered with 10 mM HEPES and homogenized on ice by sonication (VCX 750 Sonicator, 3 mm probe, 20% intensity, 10 s). Up to 8 compounds were combined randomly and spiked into the homogenate for a final concentration of 0.5 μM. Equilibrium dialysis was performed in a Rapid Equilibirum device (Thermo Fisher Scientific) against blank HBSS buffered with 10 mM HEPES, for 4 h at 37°C on an orbital shaker at 900 rpm. Stability controls were kept at 4° and 37°C for the duration of the experiment. The concentration in both dialysis chambers was quantified by extracting the compound with acetonitrile/water (60/40) containing internal standard. Matrixes were matched with blank buffer or cell homogenate, respectively. LC-MS/MS parameters are available in Table S9. All experiments were carried out in triplicates and at least at two independent occasions.
(§2) The unbound fraction in the cell homogenate (fu,hom) was determined according to Eq. (1):1 fu,hom=Cbuffer/Chom and the fraction of unbound compound in the cell (fu,cell) was calculated by correcting for homogenate dilution according to Eq. (2):2 fu,cell=1/DP∙1/fu,hom−1+1 where the dilution constant DP was calculated using Eq. (3), assuming the Vcell to be equal to 6.5 μL/mg protein ([6],[10]). Protein content in the cell homogenates was determined at each experiment using the BCA Protein Assay Reagent Kit (Thermo Fisher Scientific Inc.).3 DP=1/Vcell

[2] = fu,cell by equilibrium dialysis of cell homogenate, HL60; format: in vitro ADME; details: human, dialysis 4 h 37°C, 10 million cells/mL homogenate, read-out: fu,HL60 Geomean
Protocol: as §1, §2

[3] = fu,cell by equilibrium dialysis of cell homogenate, Caco-2; format: in vitro ADME; details: human, Caco-2 cell homogenate, dialysis 4 h 37°C, 10 million cells/mL homogenate, read-out: fu,Caco-2 Geomean
Protocol: as §1
(§3) (3), assuming the Vcell to be equal to 6.5 μL/mg protein ([6],[10]). Protein content in the cell homogenates was determined at each experiment using the BCA Protein Assay Reagent Kit (Thermo Fisher Scientific Inc.).3 DP=1/Vcell

[4] = fu,cell by equilibrium dialysis of cell homogenate, LLC-PK1; format: in vitro ADME; details: pig, dialysis 4 h 37°C, 10 million cells/mL homogenate, read-out: fu,LLCPK1 Geomean
Protocol: as §1, §2

[5] = fu,cell by equilibrium dialysis of cell homogenate, A549; format: in vitro ADME; details: human, dialysis 4 h 37°C, 10 million cells/mL homogenate, read-out: fu,A549 Geomean
Protocol: as §1, §2

[6] = fu,cell by equilibrium dialysis of cell homogenate, K562; format: in vitro ADME; details: human, dialysis 4 h 37°C, 10 million cells/mL homogenate, read-out: fu,K562 Geomean
Protocol: as §1, §2

[7] = fu,cell by equilibrium dialysis of cell homogenate, MDCK; format: in vitro ADME; details: dog, dialysis 4 h 37°C, 10 million cells/mL homogenate, read-out: fu,MDCK Geomean
Protocol: as §1, §3

[8] = fu,cell by equilibrium dialysis of cell homogenate, primary human hepatocytes; format: in vitro ADME; details: primary human hepatocyte homogenate, dialysis 4 h 37°C, 10 million cells/mL homogenate, read-out: fu,HH Geomean
Protocol: as §1, §2

[9] = fu,PL from membrane affinity to PL-covered silica beads, PC; format: in vitro ADME; details: beads coated with pure PC, 15 min incubation; for fraction unbound at 15 min: silica beads covered with phosphatidylcholine (PC), Transil, read-out: fu,PC Geomean
Protocol: (§4) f u,PL was derived from membrane affinity measurements to beads covered with PLs as previously described ([6]).
(§5) Cbuffer was quantified by LC-MS/MS in samples of the supernatant that was obtained after 15 min incubation time on an orbital shaker at 1000 rpm and subsequent separation from the beads by centrifugation at 750 x g. […] Unspecific binding was evaluated by incubations into wells without added lipids.

[10] = fu,PL from membrane affinity to PL-covered silica beads, PS; format: in vitro ADME; details: silica beads covered with phosphatidylserine (PS), Transil; beads coated with pure PS, 15 min incubation; read-out: fu,PS Geomean
Protocol: as §4, §5

[11] = fu,PL from membrane affinity to PL-covered silica beads, PE; format: in vitro ADME; details: beads coated with pure PE, 15 min incubation; read-out: fu,PE Geomean
Protocol: as §4, §5

[12] = fu,PL from membrane affinity to PL-covered silica beads, mixed beads; format: in vitro ADME; details: mixed beads PC:PE:PS:PI 52:22:12:14 mol%, 15 min incubation; read-out: fu,mixed bead Geomean
Protocol: as §4, §5

cell types of the study = details: contributions from several PL subspecies combined (Fig. 5b)

Row | SMILES | fraction unbound at 4 h, 0.5 μM [1] | fraction unbound at 4 h, 0.5 μM [2] | fraction unbound at 4 h, 0.5 μM [3] | fraction unbound at 4 h, 0.5 μM [4] | fraction unbound at 4 h, 0.5 μM [5] | fraction unbound at 4 h, 0.5 μM [6] | fraction unbound at 4 h, 0.5 μM [7] | fraction unbound at 4 h, 0.5 μM [8] | fraction unbound at 15 min [9] | fraction unbound at 15 min [10] | fraction unbound at 15 min [11] | fraction unbound at 15 min [12] | fu,PC Geomean [9] | predicted versus measured fu,cell (cell types of the study)
1 | COc1ccc2[nH]c([S+]([O-])Cc3ncc(C)c(OC)c3C)nc2c1 (centres unmarked) [Omeprazole] | 0.463 | 0.223 | 0.181 | 0.238 | 0.232 | 0.419 | 0.255 | 0.161 | 0.0203 | 0.0154 | 0.0131 | 0.0237 | – | –
2 | Nc1ccc(/N=N/c2ccccc2)c(N)n1 [Phenazopyridine] | 0.0208 | 0.0438 | 0.0118 | 0.0078 | 0.0085 | 0.0348 | 0.0215 | 0.0014 | 0.0005 | 0.0006 | 0.0019 | 0.0004 | – | –
3 | CCN(CC)CCCC(C)Nc1c2ccc(Cl)cc2nc2ccc(OC)cc12 (centres unmarked) [Quinacrine] | 0.0075 | – | – | 0.0008 | 0.0009 | 0.0164 | 0.0036 | 0.0066 | – | 0.001 | – | 0.0029 | 0.0002 | consistently over-predicted
4 | CCOc1cc(CC(=O)N[C@@H](CC(C)C)c2ccccc2N2CCCCC2)ccc1C(=O)O [Repaglinide] | 0.0312 | 0.0341 | 0.0225 | 0.0305 | 0.0254 | 0.0385 | 0.0269 | 0.0097 | 0.0114 | 0.0084 | 0.0039 | 0.0095 | – | consistently over-predicted
